# From ChEMBL document CHEMBL1201862, “PubChem BioAssay data set” (2004)
#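 All cell lines were grown in 96-well plates and treated with compound for 48 hours. At the GI50, growth is halved.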 Calls of active or inactive are those of the source. Rule as the data show it: active = GI50 up to about 1.1 µM and inactive = higher.
# How the values were obtained:
# Assay in all cases: NCI-60 cell line screen, 48 h
# 786-0 = test system: 786-0
# NCI-H522 = test system: NCI-H522
# ACHN = test system: ACHN
# NCI-H226 = test system: NCI-H226
# NCI-H23 = test system: NCI-H23
# MDA-MB-435 = test system: MDA-MB-435
# RPMI-8226 = test system: RPMI-8226
# SK-OV-3 = test system: SK-OV-3
# SF-268 = test system: SF-268
# SR = test system: SR
# HCT-116 = test system: HCT-116
# LOX IMVI = test system: LOX IMVI
# MCF7 = test system: MCF7
# Malme-3M = test system: Malme-3M
# HT-29 = test system: HT-29
# UACC-62 = test system: UACC-62
# M14 = test system: M14
# HOP-92 = test system: HOP-92
# BT-549 = test system: BT-549
# NCI-H460 = test system: NCI-H460
Compound,GI50 (786-0),GI50 (NCI-H522),GI50 (ACHN),GI50 (NCI-H226),GI50 (NCI-H23),GI50 (MDA-MB-435),GI50 (RPMI-8226),GI50 (SK-OV-3),GI50 (SF-268),GI50 (SR),GI50 (HCT-116),GI50 (LOX IMVI),GI50 (MCF7),GI50 (Malme-3M),GI50 (HT-29),GI50 (UACC-62),GI50 (M14),GI50 (HOP-92),GI50 (BT-549),GI50 (NCI-H460)
COC(=O)C1=C(C)NC(C)=C(C(=O)OC)C1c1ccc(/[N+]([O-])=C/c2ccccc2)cc1,17.3 µM (inactive),14.6 µM (inactive),17.4 µM (inactive),62.4 µM (inactive),42.5 µM (inactive),30.4 µM (inactive),66.1 µM (inactive),> 100 µM (inactive),> 100 µM (inactive),24.1 µM (inactive),16.4 µM (inactive),45 µM (inactive),16.7 µM (inactive),17.3 µM (inactive),48.9 µM (inactive),37.6 µM (inactive),18.1 µM (inactive),20.8 µM (inactive),18.8 µM (inactive),66.8 µM (inactive)
c1ccc(Cn2c(-c3ccc(-c4ccccc4)cc3)cc3ccccc32)cc1,> 100 µM (inactive),28.2 µM (inactive),> 100 µM (inactive),> 100 µM (inactive),> 100 µM (inactive),> 100 µM (inactive),> 100 µM (inactive),> 100 µM (inactive),> 100 µM (inactive),> 100 µM (inactive),> 100 µM (inactive),> 100 µM (inactive),> 100 µM (inactive),60 µM (inactive),> 100 µM (inactive),> 100 µM (inactive),> 100 µM (inactive),> 100 µM (inactive),> 100 µM (inactive),> 100 µM (inactive)
Nc1ccc(CCSSCCc2ccc(N)cc2)cc1,17 µM (inactive),12.9 µM (inactive),29.6 µM (inactive),27.5 µM (inactive),29.7 µM (inactive),26.9 µM (inactive),25.1 µM (inactive),43.6 µM (inactive),18.4 µM (inactive),0.991 µM (active),16.1 µM (inactive),21.9 µM (inactive),29.7 µM (inactive),12.2 µM (inactive),21.8 µM (inactive),26.5 µM (inactive),30 µM (inactive),34.5 µM (inactive),25.5 µM (inactive),25.7 µM (inactive)
Cc1ncc(CO)c(/C=N/CCCCCC/N=C/c2c(CO)cnc(C)c2[O-])c1[O-].[Mg+2],> 100 µM (inactive),> 100 µM (inactive),> 100 µM (inactive),> 100 µM (inactive),> 100 µM (inactive),> 100 µM (inactive),> 100 µM (inactive),> 100 µM (inactive),> 100 µM (inactive),92.7 µM (inactive),> 100 µM (inactive),> 100 µM (inactive),> 60.1 µM (inactive),> 100 µM (inactive),> 100 µM (inactive),> 100 µM (inactive),> 100 µM (inactive),> 44.6 µM (inactive),> 100 µM (inactive),> 100 µM (inactive)
Nc1nc2c(ncn2C2CCC(CO)O2)c(=O)n1C(=O)c1ccccc1 (stereo not given),> 100 µM (inactive),> 100 µM (inactive),> 100 µM (inactive),> 100 µM (inactive),> 100 µM (inactive),> 100 µM (inactive),> 100 µM (inactive),> 100 µM (inactive),> 100 µM (inactive),67.3 µM (inactive),> 100 µM (inactive),> 100 µM (inactive),> 100 µM (inactive),> 100 µM (inactive),> 100 µM (inactive),> 100 µM (inactive),> 100 µM (inactive),> 100 µM (inactive),> 100 µM (inactive),> 100 µM (inactive)
C[C@]12CC[C@H](O)C[C@@H]1CC[C@@H]1[C@@H]2CC[C@]2(C)[C@@H](c3cc(C(F)(F)F)[nH]n3)CC[C@@H]12,4.35 µM (inactive),> 22.5 µM (inactive),7.21 µM (inactive),14.6 µM (inactive),7.11 µM (inactive),10.1 µM (inactive),3.96 µM (inactive),13.8 µM (inactive),> 33 µM (inactive),3.87 µM (inactive),3.35 µM (inactive),6.11 µM (inactive),5.75 µM (inactive),> 37.3 µM (inactive),4.27 µM (inactive),14.1 µM (inactive),9.1 µM (inactive),2.74 µM (inactive),8.39 µM (inactive),3.18 µM (inactive)
OC[C@H]1CC(c2nn[nH]n2)[C@H](O)[C@@H]1O (stereo not given in full),> 100 µM (inactive),> 100 µM (inactive),> 100 µM (inactive),> 100 µM (inactive),> 100 µM (inactive),> 100 µM (inactive),> 100 µM (inactive),> 100 µM (inactive),> 100 µM (inactive),> 100 µM (inactive),> 100 µM (inactive),> 100 µM (inactive),> 100 µM (inactive),> 100 µM (inactive),> 100 µM (inactive),> 10 µM (inactive),> 100 µM (inactive),> 100 µM (inactive),> 100 µM (inactive),> 100 µM (inactive)
C#CCNC(=O)NC(CCCCNC(=O)OCc1ccccc1)C(=O)OCc1ccccc1 (stereo not given),> 95.7 µM (inactive),6.64 µM (inactive),40.1 µM (inactive),41.6 µM (inactive),76.2 µM (inactive),22.8 µM (inactive),26.7 µM (inactive),> 100 µM (inactive),67.6 µM (inactive),34.8 µM (inactive),> 100 µM (inactive),33.7 µM (inactive),> 100 µM (inactive),24.2 µM (inactive),> 56.2 µM (inactive),12.7 µM (inactive),22.7 µM (inactive),18.7 µM (inactive),> 100 µM (inactive),93.5 µM (inactive)
O=C1c2ccccc2NC(=S)[C@@H]2CCCN12,> 100 µM (inactive),> 100 µM (inactive),> 100 µM (inactive),> 100 µM (inactive),> 100 µM (inactive),> 100 µM (inactive),> 100 µM (inactive),> 100 µM (inactive),> 100 µM (inactive),> 100 µM (inactive),> 100 µM (inactive),> 100 µM (inactive),> 100 µM (inactive),> 100 µM (inactive),> 100 µM (inactive),> 100 µM (inactive),> 100 µM (inactive),> 100 µM (inactive),> 100 µM (inactive),> 100 µM (inactive)
CC1=C(/C=C/C(C)=C/C=C/C(C)=C/C(=O)O)C(C)(C)CCC1 [TRETINOIN],49.9 µM (inactive),56.9 µM (inactive),48.5 µM (inactive),43.4 µM (inactive),55.3 µM (inactive),> 58.5 µM (inactive),1.34 µM (inactive),> 71.8 µM (inactive),> 62.5 µM (inactive),47 µM (inactive),48.6 µM (inactive),31.9 µM (inactive),29 µM (inactive),46.3 µM (inactive),47.6 µM (inactive),> 64.3 µM (inactive),49.4 µM (inactive),> 63.8 µM (inactive),37.3 µM (inactive),48.8 µM (inactive)
